Literature values, collected in article PMC5133935, “Hydrostatin-TL1, an Anti-Inflammatory Active Peptide from the Venom Gland of Hydrophis cyanocinctus in the South China Sea” (International Journal of Molecular Sciences, 2016).

Test system: TNF-α
Details: cited from earlier work
From the text: Snake-derived products have been used as traditional Chinese medicines for centuries in China; however, their mechanisms of action and active constituents are still unknown. Snake venom, which is a mixture of proteins and peptides, has various biological properties including antitumor, anti-inflammatory, anti-stroke, and analgesic activities. […] Venom from s ...

Substance: Cathelicidin-BF
- antimicrobial and anti-inflammatory properties: both antimicrobial and anti-inflammatory properties
- expression and secretion of TNF-α: decreases the expression and secretion of TNF-α
